US8871681B2, “Herbicidal compositions comprising 4-amino-3-chloro-5-fluoro-6-(4-chloro-2-fluoro-3-methoxyphenyl) pyridine-2-carboxylic acid or a derivative thereof and certain sulfonylureas” (Dow AgroSciences LLC, priority 2012, dated 2014)
“And” between values parts separate entries of the source, which are not always exact repeats. Equal values may be shown once.

Legend:
Test in all cases: Postemergence foliar-applied weed control, direct seeded rice, greenhouse (Example I)
[1] = tested on: ECHCG (Echinochloa crusgalli, barnyardgrass); format: in vivo, Echinochloa crusgalli (L.) Beauv.
Source text: (§1) Seeds or nutlets of the desired test plant species were planted in a soil matrix prepared by mixing a loam or sandy loam soil (e.g., 28.6 percent silt, 18.8 percent clay, and 52.6 percent sand, with a pH of about 5.8 and an organic matter content of about 1.8 percent) and calcareous grit in an 80 to 20 ratio. The soil matrix was contained in plastic pots with a volume of 1 quart and a surface area of 83.6 square centimeters (cm^2). When required to ensure good germination and healthy plants, a fungicide treatment and/or other chemical or physical treatment was applied. The plants were grown for 8-22 days in a greenhouse with an approximate 14 h photoperiod which was maintained at about 29° C. during the day and 26° C. during the night. Nutrients (Peters Excel® 15-5-15 5-Ca 2-Mg and iron chelate) were applied in the irrigation solution as needed and water was added on a regular basis. Supplemental lighting was provided with overhead metal halide 1000-Watt lamps as necessary. The plants were employed for testing when they reached the first through fourth true leaf stage.
(§2) Treatments consisted of the acid or esters of 4-amino-3-chloro-5-fluoro-6-(4-chloro-2-fluoro-3-methoxy-phenyl)pyridine-2-carboxylic acid (Compound A), each formulated as an SC, and various herbicidal components alone and in combination. Forms of compound A were applied on an acid equivalent basis.
(§3) Other herbicidal components were applied on an active ingredient basis and included acetolactate synthase (ALS)-inhibiting herbicides (sulfonylurea chemical class) azimsulfuron formulated as Gulliver®, bensulfuron-methyl formulated as Londax® 60DF, cyclosulfamuron (technical material), ethoxysulfuron formulated as Sunrice® 15 WDG, flazasulfuron formulated as Katana®, flucetosulfuron formulated as Sukedachi® 1KG G, foramsulfuron formulated as Option®, imazosulfuron formulated as Brazzos® WG, iodosulfuron-methyl-sodium formulated as Hussar®, metsulfuron-methyl formulated as Lorate®, nicosulfuron formulated as Accent®, orthosulfamuron formulated as Strada® WG, primisulfuron-methyl (technical material), propyrisulfuron formulated as Zeta One®, rimsulfuron formulated as Matrix® WG, sulfometuron-methyl formulated as Oust®, and trifloxysulfuron-sodium formulated as Monument® 75WG.
(§4) Treatment requirements were calculated based upon the rates being tested, the concentration of active ingredient or acid equivalent in the formulation, and a 12 mL application volume at a rate of 187 L/ha.
(§5) For treatments comprised of formulated compounds, measured amounts of compounds were placed individually in 25 mL glass vials and diluted in a volume of 1.25% (v/v) Agri-Dex® crop oil concentrated to obtain 12× stock solutions. […] Application solutions were prepared by adding an appropriate amount of each stock solution (e.g., 1 mL) and diluted to the appropriate final concentrations with the addition of 10 mL of an aqueous mixture of 1.25% (v/v) crop oil concentrate so that the final spray solutions contained 1.25+/−0.05% (v/v) Agrcrop oil concentrate.
(§6) For treatments comprised of formulated and technical compounds, weighed amounts of the technical materials were placed individually in 25 mL glass vials and dissolved in a volume of 97:3 v/v acetone/DMSO to obtain 12× stock solutions, and measured amounts of the formulated compounds were placed individually in 25 mL glass vials and diluted in a volume of 1.25% (v/v) crop oil concentrate to obtain 12× stock solutions. […] Application solutions were prepared by adding an appropriate amount of each stock solution (e.g., 1 mL) and diluted to the appropriate final concentrations with the addition of an appropriate amount of an aqueous mixture of 1.5% (v/v) crop oil concentrate so that the final spray solutions contained 1.25% (v/v) crop oil concentrate. […]

[2] = tested on: CYPIR (Cyperus iria, rice flatsedge); format: in vivo, Cyperus iria L.
In short: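 Greenhouse-grown plants (14 h photoperiod, 29/26 °C day/night) at first to fourth true leaf stage sprayed overhead at 187 L/ha with Compound A (acid equivalent basis) alone or mixed with sulfonylurea ALS inhibitors (active ingredient basis). Final spray contained 1.25% v/v crop oil concentrate; controls received solvent blank.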

[3] = tested on: IPOHE (Ipomoea hederacea, ivyleaf morningglory); format: in vivo, Ipomoea hederacea Jacq.
Source text: as §1, §2, §3, §4, §5, §6

## COC(=O)c1ccccc1CS(=O)(=O)NC(=O)Nc1nc(OC)cc(OC)n1 [Bensulfuron-methyl, methyl 2-[[[[[(4,6-dimethoxy-2-pyrimidinyl)amino]carbonyl]amino]sulfonyl]methyl]benzoate, reference compound]
[1]; 21 DAA, 17.5 gai/ha
  Visual Weed Control (%) Obs: 0%
[1]; 21 DAA, 35 gai/ha
  Visual Weed Control (%) Obs: 0%
[1]; 27 DAA, 4.38 gai/ha
  Visual Weed Control (%) Obs: 0%
[1]; 27 DAA, 8.75 gai/ha
  Visual Weed Control (%) Obs: 0%
[1]; 27 DAA, 17.5 gai/ha
  Visual Weed Control (%) Obs: 0%

## COc1c(Cl)ccc(-c2nc(C(=O)O)c(Cl)c(N)c2F)c1F [Compound A Acid, 4-amino-3-chloro-5-fluoro-6-(4-chloro-2-fluoro-3-methoxy-phenyl)pyridine-2-carboxylic acid]
[1]; 21 DAA, 4.38 gae/ha
  Visual Weed Control (%) Obs: 15%
[1]; 21 DAA, 8.75 gae/ha
  Visual Weed Control (%) Obs: 50%
[2]; 21 DAA, 4.38 gae/ha
  Visual Weed Control (%) Obs: 70%
[2]; 22 DAA, 8 gae/ha
  Visual Weed Control (%) Obs: 60%
[2]; 22 DAA, 16 gae/ha
  Visual Weed Control (%) Obs: 90%
[3]; 20 DAA, 5.3 gae/ha
  Visual Weed Control (%) Obs: 0%
[3]; 20 DAA, 10.6 gae/ha
  Visual Weed Control (%) Obs: 15%
[3]; 20 DAA, 21.2 gae/ha
  Visual Weed Control (%) Obs: 25%
[3]; 21 DAA, 4.38 gae/ha
  Visual Weed Control (%) Obs: 25%
[3]; 21 DAA, 8.75 gae/ha
  Visual Weed Control (%) Obs: 30%
[3]; 21 DAA, 17.5 gae/ha
  Visual Weed Control (%) Obs: 45%
[3]; 22 DAA, 8 gae/ha
  Visual Weed Control (%) Obs: 25%
[3]; 22 DAA, 16 gae/ha
  Visual Weed Control (%) Obs: 35%
[3]; 22 DAA, 32 gae/ha
  Visual Weed Control (%) Obs: 40%

## COc1c(Cl)ccc(-c2nc(C(=O)OCc3ccccc3)c(Cl)c(N)c2F)c1F [Compound A Benzyl Ester]
[1]; 21 DAA, 4.38 gae/ha
  Visual Weed Control (%) Obs: 10%
[2]; 20 DAA, 4.38 gae/ha
  Visual Weed Control (%) Obs: 15%
[2]; 20 DAA, 8.75 gae/ha
  Visual Weed Control (%) Obs: 60%
[2]; 20 DAA, 17.5 gae/ha
  Visual Weed Control (%) Obs: 90%
[2]; 21 DAA, 4.38 gae/ha
  Visual Weed Control (%) Obs: 50%
[2]; 22 DAA, 16 gae/ha
  Visual Weed Control (%) Obs: 60% and 80%
[3]; 20 DAA, 4.38 gae/ha
  Visual Weed Control (%) Obs: 10%
[3]; 20 DAA, 8.75 gae/ha
  Visual Weed Control (%) Obs: 10%
[3]; 20 DAA, 17.5 gae/ha
  Visual Weed Control (%) Obs: 25%
[3]; 21 DAA, 4.38 gae/ha
  Visual Weed Control (%) Obs: 0%
[3]; 21 DAA, 8 gae/ha
  Visual Weed Control (%) Obs: 10%
[3]; 21 DAA, 8.75 gae/ha
  Visual Weed Control (%) Obs: 10%
[3]; 21 DAA, 16 gae/ha
  Visual Weed Control (%) Obs: 10%
[3]; 21 DAA, 17.5 gae/ha
  Visual Weed Control (%) Obs: 30%
[3]; 21 DAA, 32 gae/ha
  Visual Weed Control (%) Obs: 45%
[3]; 22 DAA, 8 gae/ha
  Visual Weed Control Obs: 10%
[3]; 22 DAA, 16 gae/ha
  Visual Weed Control Obs: 10%
[3]; 22 DAA, 32 gae/ha
  Visual Weed Control Obs: 35%

## COCC(=O)OC(c1ncccc1S(=O)(=O)NC(=O)Nc1nc(OC)cc(OC)n1)C(C)F (centres unmarked) [Flucetosulfuron, 1-[3-[[[[(4,6-dimethoxy-2-pyrimidinyl)amino]carbonyl]amino]sulfonyl]-2-pyridinyl]-2-fluoropropyl 2-methoxyacetate]
[2]; 21 DAA, 0.05 gai/ha
  Visual Weed Control (%) Obs: 0%
[2]; 21 DAA, 0.1 gai/ha
  Visual Weed Control (%) Obs: 0%
[2]; 21 DAA, 0.2 gai/ha
  Visual Weed Control (%) Obs: 20%
[3]; 21 DAA, 0.05 gai/ha
  Visual Weed Control (%) Obs: 20%
[3]; 21 DAA, 0.2 gai/ha
  Visual Weed Control (%) Obs: 20%
[3]; 22 DAA, 5 gai/ha
  Visual Weed Control (%) Obs: 90%
[3]; 22 DAA, 10 gai/ha
  Visual Weed Control (%) Obs: 90%
